This note sets out measurements from US20250195502A1, “APPLICATION OF TETRACYCLIC COMPOUND IN TREATMENT OF TUMORS” (SHANGHAI SHIJIANG BIOTECHNOLOGY CO., LTD, priority 2022, published 2025).

Format in all cases: cell-based
The subject of test [1] is Con-NCI-H82 cell (NCI-H82 transfected with empty virus vector). Briefly: Cell viability assay (Promega CellTiter-Glo), inhibitory effect on Con-NCI-H82 cell. Conditions: Homo sapiens. As for the experimental part:
(§1) The role of expression level of NNMT gene and DNMT1 in the sensitivity of NCI-H82 cell to the compounds prepared in the Examples of the present invention was determined
(§2) The expression of NNMT protein in NCI-H82 cell was overexpressed by inserting the NNMT gene into NCI-H82 cell using a viral vector, and the NNMT protein-overexpressing NCI-H82 cell (ov-NNMT NCI-H82 cell) was obtained. The expression of DNMT1 in NCI-H82 cell was knocked down transfecting (the by shRNA nucleotide sequence of shRNA was […] TTTTTG (SEQ ID No: 2)) using a viral vector, and the NCI-H82 cell with low expression of DNMT1 protein (sh-DNMT1 NCI-H82 cell) was obtained. The control NCI-H82 cell (Con-NCI-H82 cell) was obtained by transfecting NCI-H82 cell with empty virus vector without carrying NNMT gene and shRNA. The expressing content of NNMT protein and DNMT1 protein in the Con-NCI-H82 cell, the expressing content of NNMT protein in the ov-NNMT NCI-H82 cell, and the expressing content of DNMT1 protein in the sh-DNMT1 NCI-H82 cell were detected using Western Blot assay (as shown in FIG. 15 and FIG. 16), it could be seen from FIG. 15 and FIG. 16 that the NNMT protein was overexpressed in the ov-NNMT NCI-H82 cell and the expression of DNMT1 protein was knocked down (i.e, low expression) in the sh-DNMT1 NCI-H82 cell compared with the expression level of NNMT protein and DNMT protein in the Con-NCI-H82 cell.
(Cellular ATP, detected with luciferase, serves as a proxy for viable cell number.)

Test [2] deals with sh-DNMT1 NCI-H82 cell (DNMT1 knocked down NCI-H82). In words: Cell viability assay (Promega CellTiter-Glo), inhibitory effect on sh-DNMT1 NCI-H82 cell. The conditions noted are these: Homo sapiens, NCI-H82 with DNMT1 knocked down by shRNA. How it is done: as §1, §2
The test system of test [3] is ov-NNMT NCI-H82 cell (NNMT protein-overexpressing NCI-H82). Briefly: Cell viability assay (Promega CellTiter-Glo), inhibitory effect on ov-NNMT NCI-H82 cell. Conditions: Homo sapiens. As for the experimental part:
as §1, §2

Test [4] relates to CFPAC-1 (human pancreatic cancer cell). In words: Cell viability assay (Promega CellTiter-Glo), inhibitory effect on CFPAC-1. Conditions: 72 h, 3 days of culture. How it is done:
(§3) The inhibitory effect of the compounds prepared in the Examples of the present invention on various tumor cell lines was detected using cell viability assay reagent.
(§4) Cell viability was detected using the Promega CellTiter-Glo kit, cell viability was determined by directly measuring intracellular ATP content. In the experiment, the ICso value of the compounds prepared in the Examples of the present invention on various tumor cell lines was detected.
(§5) Each tumor cell was cultured in relevant medium. After cell passage, the gradient diluted compounds prepared in the Examples of the present invention was added. After 3 days of culture, the relevant IC50 (50% inhibiting concentration) was measured. The name, source and culture conditions of each tumor cell line were as follows:
Cell line CFPAC-1 (ATCC, No. CRL-1918) was cultured in 10% fetal bovine serum-containing IMDM medium (+P/S).

Test [5] concerns MDA-MB-453 (breast cancer cell). Briefly: Cell viability assay (Promega CellTiter-Glo), inhibitory effect on MDA-MB-453. Conditions: Homo sapiens, 72 h, 3 days of culture. How it is done: as §3, §4, §5
Cell line MDA-MB-453 (ATCC, No. HTB-131) was cultured in 10% fetal bovine serum-containing Leibovitz's L-15 medium (+P/S).

Test [6] concerns 786-O (clear cell renal cell adenocarcinoma cell). Briefly: Cell viability assay (Promega CellTiter-Glo), inhibitory effect on 786-O. The conditions noted are these: Homo sapiens, 786-0, 72 h, 3 days of culture. How it is done:
as §3, §4, §5
Cell line 786-0 (ATCC, No. CRL-1932) was cultured in 10% fetal bovine serum-containing RPMI1640 medium (+P/S).

Test [7] deals with SW48 (human colon adenocarcinoma cell). In words: Cell viability assay (Promega CellTiter-Glo), inhibitory effect on SW48. Conditions: 72 h, 3 days of culture. How it is done:
as §3, §4, §5
Cell line SW48 (ATCC, No. CCL-231) was cultured in 10% fetal bovine serum-containing Leibovitz's L-15 medium (+P/S).

For test [8], the system named is GB-1 (human brain glioblastoma cell). In words: Cell viability assay (Promega CellTiter-Glo), inhibitory effect on GB-1. The conditions noted are these: 72 h, 3 days of culture, Table 3, read-out: inhibitory effect on GB-1 (IC50). How it is done:
as §3, §4, §5
Cell line GB-1 (JCRB, No. IFO50489) was cultured in 10% fetal bovine serum-containing DMEM medium (+P/S).
(§6) The inhibitory effect of the compounds prepared in the Examples of the present invention on various brain tumor cell lines was detected using cell viability assay reagent.
(§7) Cell viability was detected using the Promega CellTiter-Glo kit, cell viability was determined by directly measuring intracellular ATP content. In the experiment, the IC50 value of the compounds prepared in the Examples of the present invention on various brain tumor cell lines was detected.

Test [9] deals with G-401 (human renal carcinoma Wilms cell). Briefly: Cell viability assay (Promega CellTiter-Glo), inhibitory effect on G-401. The conditions noted are these: 72 h, 3 days of culture. As for the experimental part: as §3, §4, §5
Cell line G-401 (ATCC, No. CRL-1441) was cultured in 10% fetal bovine serum-containing McCoy's 5a medium (+P/S).

Test [10] relates to NCI-H82 (human small cell lung cancer cell). Briefly: Cell viability assay (Promega CellTiter-Glo), inhibitory effect on NCI-H82. The conditions noted are these: 72 h, 3 days of culture. How it is done:
as §3, §4, §5
Cell line NCI-H82 (ATCC, No. HTB-175) was cultured in 10% fetal bovine serum-containing RPMI1640 medium (+P/S).

For test [11], the system named is SF126 (human glioblastoma multiforme cell). Briefly: Cell viability assay (Promega CellTiter-Glo), inhibitory effect on SF126. The conditions noted are these: 72 h, SF-126, 3 days of culture, Table 3, read-out: inhibitory effect on SF-126 (IC50). As for the experimental part:
as §3, §4, §5
Cell line SF126 (JCRB, No. IFO50286) was cultured in 10% fetal bovine serum-containing EMEM medium (+P/S).
as §6, §7

Where [12] appears, read: NCI-H82 transfected with empty virus vector (control), CellTiter-Glo, read-out: inhibitory effect on Con-NCI-H82 (IC50).
The mark [13] stands for this setting: NCI-H82, read-out: inhibitory effect on Con-NCI-H82 (IC50).

Read-outs that look alike come from different tables or passages of the source.

For the compound `CCCCCCCCCCOc1c(OC)ccc2cc3[n+](cc12)CCc1cc2c(cc1-3)OCO2` [compound AB31716], the IC50 – broadly, the midpoint of a concentration-inhibition curve – in test [1] (setting [12]) was 0.07 µM; in test [2], 0.35 µM; in test [3] it was 0.38 µM.
For `CCCCCCCCCCCCOc1c(OC)ccc2cc3[n+](cc12)CCc1cc2c(cc1-3)OCO2` [compound AB31717], in that order: 0.11 µM, 0.36 µM and 0.25 µM.
Regarding `CCCCC(=O)Oc1c(OC)ccc2cc3[n+](cc12)CCc1cc2c(cc1-3)OCO2` [compound AB31723], the IC50 was found to be 3.94 µM in test [1] (setting [12]); 22.6 µM in test [4]; 3.45 µM in [5]; 21.5 µM in test [6]; 2.56 µM in [7]; 8.08 µM in test [2]. Further, the IC50 in [8] is above 50 µM; in test [3], 8.28 µM; in test [9], 5.31 µM; in test [10] it was 3.94 µM; in [11], 19.3 µM.
On to `CCc1c2[n+](cc3c(OC)c(OC)ccc13)CCc1cc3c(cc1-2)OCO3` [compound AB31755], for which the values for the IC50 in test [1] (setting [12]), in test [2] and in test [3] were 2.36 µM, 7.68 µM and 4.82 µM, respectively.
With `CCCc1c2[n+](cc3c(OC)c(OC)ccc13)CCc1cc3c(cc1-2)OCO3` [compound AB31756], the IC50 in [1] (setting [12]) was found to be 1.01 µM; in test [2], 4.36 µM; in test [3], 2.38 µM.
In the case of `CCCCCCCCc1c2[n+](cc3c(OC)c(OC)ccc13)CCc1cc3c(cc1-2)OCO3` [compound AB31761], the figures for the IC50 in [1] (setting [12]), in test [2] and in [3] were 0.27 µM, 0.98 µM and 0.74 µM, respectively.
On to `CCCCCCCCCCc1c2[n+](cc3c(OC)c(OC)ccc13)CCc1cc3c(cc1-2)OCO3` [compound AB31762], for which the half-inhibitory concentration (IC50) in [1] (setting [12]) was found to be 0.13 µM; in [2] it was 0.49 µM; in test [3], 0.32 µM.
Turning to `CCCCCCCCCCCCc1c2[n+](cc3c(OC)c(OC)ccc13)CCc1cc3c(cc1-2)OCO3` [compound AB31763], the IC50 in test [1] (setting [12]) is 0.08 µM; in [2] it was 0.42 µM; in test [3] it was 0.31 µM.
For the compound `CCCCCCCCCCCC(=O)Oc1c(OC)ccc2cc3[n+](cc12)CCc1cc2c(cc1-3)OCO2` [compound AB31766], the IC50 stood at 2.47 µM in [1] (setting [12]); 15.2 µM in test [4]; 1.25 µM in test [5]; 13 µM in test [6]; 1.21 µM in [7]; 4.84 µM in [2]. The IC50 is 9.12 µM in test [8]; 4.95 µM in test [3]; 2.89 µM in test [9]; 2.47 µM in [10]; 12.9 µM in test [11].
For the compound `CCCCCCCCCCCCc1c2[n+](cc3c(OCCCCCCCCCC)c(OC)ccc13)CCc1cc3c(cc1-2)OCO3` [compound AB31795], the figures for the IC50 in test [1] (setting [12]), in test [2] and in test [3] were 0.24 µM, 0.88 µM and 0.68 µM, respectively.
Take `CCCCCCCCCCCCc1c2[n+](cc3c(OCCCCCCCC)c(OC)ccc13)CCc1cc3c(cc1-2)OCO3` [compound AB31796]: the IC50 in test [1] (setting [12]) amounted to 0.27 µM; in [2], 0.76 µM; in test [3], 0.64 µM.
Take `CCCCCCCCCCCCc1c2[n+](cc3c(OCCCCCC)c(OC)ccc13)CCc1cc3c(cc1-2)OCO3` [compound AB31797]: the results for the IC50 in [1] (setting [12]), in test [2] and in test [3] were 0.12 µM, 0.48 µM and 0.54 µM, respectively.
For `CCCCCCCCCCCCCCc1c2[n+](cc3c(OC)c(OC)ccc13)CCc1cc3c(cc1-2)OCO3` [compound AB31800], in that order: 0.22 µM, 0.58 µM and 0.65 µM.
For `COc1ccc2cc3[n+](cc2c1OC)CCc1cc2c(cc1-3)OCCO2` [compound AB31811], in that order: 3.12 µM, 12.5 µM and 7.34 µM.
Consider `COc1ccc2cc3[n+](cc2c1OCCCCl)CCc1cc2c(cc1-3)OCO2` [compound AB35483], for which the IC50 in [1] (setting [13]) was 1.26 µM; in test [2], 5.32 µM; in test [3], 2.88 µM.
Turning to `CCCOc1c(OC)ccc2cc3[n+](cc12)CCc1cc2c(cc1-3)OCO2` [compound AB35511], the figures for the IC50 in [1] (setting [12]), in [2] and in test [3] were 0.61 µM, 2.56 µM and 1.38 µM, respectively.
For `COc1ccc2cc3[n+](cc2c1OCc1ccc(-c2ccccc2)cc1)CCc1cc2c(cc1-3)OCO2` [compound AB35532], the IC50 in [1] (setting [12]) stood at 0.34 µM; in test [2], 2.56 µM; in [3], 0.96 µM.
For `COc1ccc2cc3[n+](cc2c1OCCBr)CCc1cc2c(cc1-3)OCO2` [compound AB35595], in that order: 0.68 µM, 3.15 µM and 1.54 µM.
In the case of `COc1ccc2cc3[n+](cc2c1OCCCl)CCc1cc2c(cc1-3)OCO2` [compound AB36404], the IC50 in [1] (setting [13]) came out at 1.06 µM; in [2], 4.86 µM; in [3] it was 2.54 µM.
In the case of `CCOc1c(OC)ccc2cc3[n+](cc12)CCc1cc2c(cc1-3)OCO2` [compound AB36412], the figures for the IC50 in test [1] (setting [12]), in test [2] and in test [3] were 1.17 µM, 4.69 µM and 2.58 µM, respectively.
On to `COc1c(OCCCCl)ccc2cc3[n+](cc12)CCc1cc2c(cc1-3)OCO2` [compound AB36425], for which the IC50 in test [1] (setting [13]) came to 0.85 µM; in test [2], 3.88 µM; in test [3], 1.92 µM.
As for `COc1ccc2cc3[n+](cc2c1OCCF)CCc1cc2c(cc1-3)OCO2` [compound AB36484], the IC50 in [1] (setting [12]) is 1.84 µM; in test [2] it was 8.32 µM; in test [3] it was 3.85 µM.
For `[2H]C([2H])([2H])Oc1c(OC)ccc2cc3[n+](c(C4CCCC4)c12)CCc1cc2c(cc1-3)OCO2.[Br-]` [compound AB36508], in that order: 0.56 µM, 2.82 µM and 1.34 µM.
